Measurements reported in publication PMC11928863 (Computational and Structural Biotechnology Journal, 2025).

Biological target: T1, CD2068 (Clostridioides difficile, UniProt Q188D7)
T1 sequence (Q188D7 1-541): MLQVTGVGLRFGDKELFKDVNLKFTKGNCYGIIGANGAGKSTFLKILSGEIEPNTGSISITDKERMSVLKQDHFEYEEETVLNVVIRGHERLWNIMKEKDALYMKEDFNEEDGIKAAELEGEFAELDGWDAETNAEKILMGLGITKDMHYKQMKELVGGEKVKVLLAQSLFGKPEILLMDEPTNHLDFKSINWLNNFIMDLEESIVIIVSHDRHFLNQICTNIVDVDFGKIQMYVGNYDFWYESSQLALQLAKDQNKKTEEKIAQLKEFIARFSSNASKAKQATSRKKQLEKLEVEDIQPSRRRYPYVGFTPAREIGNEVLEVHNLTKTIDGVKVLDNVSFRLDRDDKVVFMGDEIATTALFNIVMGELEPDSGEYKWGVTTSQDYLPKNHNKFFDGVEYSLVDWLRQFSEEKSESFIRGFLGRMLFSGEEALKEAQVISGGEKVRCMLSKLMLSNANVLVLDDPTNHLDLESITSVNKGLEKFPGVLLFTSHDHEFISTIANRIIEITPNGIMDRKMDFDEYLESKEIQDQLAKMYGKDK
Assay: malachite green ATPase assay, purified CD2068 with […] ATP
Type: biochemical

## Nc1ncnc2c1ncn2[C@@H]1O[C@H](COP(=O)(O)OP(=O)(O)OP(=O)(O)O)[C@@H](O)[C@H]1O [ATP]
  malachite green ATPase assay, purified CD2068 with 1 mM ATP: 52.52 nmol/min/mg
